The record followed here is patent US9394261B2, “Aryl amine substituted pyrimidine and quinazoline and their use as anticancer drugs” (National Yang-Ming University, priority 2012, dated 2016).

One assay has as its system SK-Hep-1 cell lines (a hepatocellular carcinoma (HCC) cell). The assay is described as follows: MTT assay, growth inhibition of SK-Hep-1 cells. The format is cell-based. The conditions noted are these: Homo sapiens, SK-HEP1, 48 h, SK-Hep-1 cells, 48 hours. On the procedure: MTT assay was used to measure growth inhibition. […] MTT (3-(4,5-dimethylthiazol-2-yl)-2,5-diphenyl tetrazolium bromide) assay was performed as follow.
The effect of individual test compounds on cell viability was assessed by using the MTT in 6 replicates. Sk-Hep-1 cells were seeded and incubated in 96-well, flat-bottomed plates for 24 hours, and were exposed to various concentrations of test compounds dissolved in DMSO (final concentration, 0.1%) for 48 hours. Controls received DMSO vehicle at a concentration equal to that in drug-treated cells. The medium was removed, replaced by 200 μL of 0.5 mg/mL MTT in 10% fetal bovine serum containing DMEM (Dulbecco's Modified Eagle Medium), and cells were incubated in the carbon dioxide incubator at 37° C. for 2 hours. Supernatants were removed from the wells and the reduced MTT dye was solubilized in 100 μL/well DMSO. Absorbance at 570 nm was determined on a plate reader.
The SK-Hep1 cells were then analyzed with western blot assay and MTT assay.
In general terms: Tetrazolium assays rely on reduction of a dye to a coloured formazan, in cell work by metabolically active cells.
`C#Cc1cccc(Nc2ccnc(Cl)n2)c1` [Compound 1, 2-Chloro-N-(3-ethynylphenyl)pyrimidin-4-amine] displayed an IC50 of over 40 µM.
`Clc1cccc(Nc2ccnc(Cl)n2)c1` [Compound 2, 2-Chloro-N-(3-chlorophenyl)pyrimidin-4-amine] showed an IC50 of over 40 µM.
The same measure, in the same setting: the same measure for `FC(F)(F)c1cc(Nc2ccnc(Cl)n2)ccc1Cl` [Compound 3, 2-Chloro-N-(4-chloro-3-(trifluoromethyl)phenyl)pyrimidin-4-amine]: over 40 µM.
Same read-out and setting: the same measure for `Clc1nccc(NCc2ccccc2)n1` [Compound 5, N-Benzyl-2-chloropyrimidin-4-amine]: over 40 µM; for `C#Cc1cccc(Nc2ccnc(Nc3cccc(C#C)c3)n2)c1` [Compound 6, N^2,N^4-Bis(3-ethynylphenyl)pyrimidine-2,4-diamine]: under 10 µM; for `FC(F)(F)c1cc(Nc2ccnc(Nc3ccc(Cl)c(C(F)(F)F)c3)n2)ccc1Cl` [Compound 7, N^2,N^4-Bis(4-chloro-3-(trifluoromethyl)phenyl)pyrimidine-2,4-diamine]: 10 to 20 µM.
Still for that read-out and setting: the same measure for `C#Cc1cccc(N(C)c2nc(Cl)nc3cc(OC)c(OC)cc23)c1` [Compound 9, 2-Chloro-N-(3-ethynylphenyl)-6,7-dimethoxy-N-methyl quinazoline-4-amine]: 10 to 20 µM; for `COc1cc2nc(Cl)nc(Nc3cccc(Cl)c3)c2cc1OC` [Compound 10, 2-Chloro-N-(3-chlorophenyl)-6,7-dimethoxyquinazoline-4-amine]: 10 to 20 µM; for `COc1cc2nc(Cl)nc(Nc3cccc(O)c3)c2cc1OC` [Compound 11, 3-(2-Chloro-6,7-dimethoxyquinazoline-4-ylamino)phenol]: over 40 µM.
In turn, `COc1cc2nc(Cl)nc(Nc3cc(C)ccc3F)c2cc1OC` [Compound 12, 2-Chloro-N-(2-fluoro-5-methylphenyl)-6,7-dimethoxy quinazoline-4-amine] displayed an IC50 of over 40 µM.
Consider `COc1cc2nc(Cl)nc(Nc3ccc(Oc4ccccc4)cc3)c2cc1OC` [Compound 14, 2-Chloro-6,7-dimethoxy-N-(4-phenoxyphenyl)quinazoline-4-amine], for which the IC50 fell in the range of 10 to 20 µM.
The same measure, in the same setting: to `COc1cc2nc(Cl)nc(Nc3ccc(O)cc3C)c2cc1OC` [Compound 15, 4-(2-Chloro-6,7-dimethoxyquinazoline-4-ylamino)-3-methylphenol] belongs over 40 µM; to `COc1cc2nc(Cl)nc(Nc3cccc(Oc4ccc(C#N)cc4)c3)c2cc1OC` [Compound 16, 4-(3-(2-Chloro-6,7-dimethoxyquinazoline-4-ylamino)phenoxy)benzonitrile], over 40 µM.
The same measure, in the same setting: to `COc1cc2nc(Cl)nc(NCc3ccccc3)c2cc1OC` [Compound 17, N-Benzyl-2-chloro-6,7-dimethoxyquinazoline-4-amine] belongs 10 to 20 µM; to `C#Cc1cccc(Nc2nc(Nc3ccc(Cl)c(C(F)(F)F)c3)nc3cc(OC)c(OC)cc23)c1` [Compound 18, N^2-(4-Chloro-3-(trifluoromethyl)phenyl)-N^4-(3-ethynylphenyl)-6,7-dimethoxy-quinazoline-2,4-diamine], under 10 µM.
On to `C#Cc1cccc(Nc2nc(Nc3cccc(Cl)c3)nc3cc(OC)c(OC)cc23)c1` [Compound 20, N^2-(3-Chlorophenyl)-N^4-(3-ethynylphenyl)-6,7-dimethoxy quinazoline-2,4-diamine], for which the half-inhibitory concentration (IC50) is under 10 µM.
The same measure, in the same setting: to `C#Cc1cccc(Nc2nc(Nc3ccc(Oc4ccc(C#N)cc4)cc3)nc3cc(OC)c(OC)cc23)c1` [Compound 24, 4-(4-(4-(3-Ethynylphenylamino)-6,7-dimethoxyquinazolin-2-ylamino)phenoxy)benzonitrile] belongs 10 to 20 µM; to `C#Cc1cccc(Nc2nc(Nc3cccc(C#C)c3)c3cc(OC)c(OC)cc3n2)c1` [Compound 25, N^2,N^4-Bis(3-ethynylphenyl)-6,7-dimethoxyquinazoline-2,4-diamine], under 10 µM; to `C#Cc1cccc(Nc2nc(Nc3cccc(CC)c3)nc3cc(OC)c(OC)cc23)c1` [Compound 26, N^2-(3-ethylphenyl)-N^4-(3-ethynylphenyl)-6,7-dimethoxy quinazoline-2,4-diamine], under 10 µM.
The same measure, in the same setting: the same measure for `C#Cc1cccc(Nc2nc(NCc3ccc(OC)c(OC)c3)nc3cc(OC)c(OC)cc23)c1` [Compound 29, N^2-(3,4-dimethoxybenzyl)-N^4-(3-ethynylphenyl)-6,7-dimethoxyquinazoline-2,4-diamine]: under 10 µM.
`C#Cc1cccc(Nc2nc(Nc3cccc(NS(=O)(=O)c4ccccc4)c3)nc3cc(OC)c(OC)cc23)c1` [Compound 30, N-(3-(4-(3-ethynylphenylamino)-6,7-dimethoxyquinazolin-2-ylamino)phenyl)benzenesulfonamide] displayed a half-inhibitory concentration (IC50) of under 10 µM.
On to `C#Cc1cccc(Nc2nc(Nc3cccc(NS(=O)(=O)c4ccc(C(F)(F)F)cc4Br)c3)nc3cc(OC)c(OC)cc23)c1` [Compound 32, 2-Bromo-N-(3-(4-(3-ethynylphenylamino)-6,7-dimethoxyquinazolin-2-ylamino)phenyl)-4-(trifluoromethyl)benzenesulfonamide], for which the half-maximal inhibitory concentration (IC50) was under 10 µM.

The same assay, now with this note: SK-Hep-1 (HCC) cells.
For `C#Cc1cccc(Nc2ccnc(Nc3cccc(C#C)c3)n2)c1` [Compound 6, N^2,N^4-Bis(3-ethynylphenyl)pyrimidine-2,4-diamine], the “growth-inhibitory activity (MTT), in words” value is “more potent anti-tumor activity than the mono-substituted pyrimidine derivatives”.
As for `FC(F)(F)c1cc(Nc2ccnc(Nc3ccc(Cl)c(C(F)(F)F)c3)n2)ccc1Cl` [Compound 7, N^2,N^4-Bis(4-chloro-3-(trifluoromethyl)phenyl)pyrimidine-2,4-diamine], the “growth-inhibitory activity (MTT), in words” value is given as “more potent anti-tumor activity than the mono-substituted pyrimidine derivatives”.

The assay is the same for the next values; noted with them: SK-Hep-1 cells, 48 hours.
`C#Cc1cccc(N(C)c2nc(Cl)nc3cc(OC)c(OC)cc23)c1` [Compound 9, 2-Chloro-N-(3-ethynylphenyl)-6,7-dimethoxy-N-methyl quinazoline-4-amine]: the half-inhibitory concentration (IC50) came to 12.3 ± 0.6 µM.
Consider `COc1cc2nc(Cl)nc(Nc3ccc(Oc4ccccc4)cc3)c2cc1OC` [Compound 14, 2-Chloro-6,7-dimethoxy-N-(4-phenoxyphenyl)quinazoline-4-amine], for which half-maximal inhibition (IC50) required 15.3 ± 0.6 µM.
The same measure, in the same setting: to `C#Cc1cccc(Nc2nc(Nc3cccc(Oc4ccc(C#N)cc4)c3)nc3cc(OC)c(OC)cc23)c1` [Compound 23, 4-(3-(4-(3-Ethynylphenylamino)-6,7-dimethoxyquinazolin-2-ylamino)phenoxy)benzonitrile] belongs 3.9 µM.
Same read-out and setting: to `C#Cc1cccc(Nc2nc(Nc3ccc(Oc4ccc(C#N)cc4)cc3)nc3cc(OC)c(OC)cc23)c1` [Compound 24, 4-(4-(4-(3-Ethynylphenylamino)-6,7-dimethoxyquinazolin-2-ylamino)phenoxy)benzonitrile] belongs 14.5 µM.
Compound `C#Cc1cccc(Nc2nc(NCc3ccc(Cl)c(C(F)(F)F)c3)nc3cc(OC)c(OC)cc23)c1` [Compound 27, N^2-(4-Chloro-3-(trifluoromethyl)benzyl)-N^4-(3-ethynylphenyl)-6,7-dimethoxyquinazoline-2,4-diamine] had an IC50 of 2.6 µM.
On the same count and under the same terms, to `C#Cc1cccc(Nc2nc(NCc3cccc(OC(F)(F)F)c3)nc3cc(OC)c(OC)cc23)c1` [Compound 28, N^4-(3-Ethynylphenyl)-6,7-dimethoxy-N^2-(3-(trifluoromethoxy)benzyl)quinazoline-2,4-diamine] belongs 2.55 µM.
`C#Cc1cccc(Nc2nc(Nc3cccc(NS(=O)(=O)c4cccc(C(F)(F)F)c4)c3)nc3cc(OC)c(OC)cc23)c1` [Compound 31, N-(3-(4-(3-Ethynylphenylamino)-6,7-dimethoxyquinazolin-2-ylamino)phenyl)-3-(trifluoromethyl)benzenesulfonamide] gave a concentration for half-maximal inhibition (IC50) of 1.95 µM.
`C#Cc1cccc(Nc2nc(Nc3cccc(NC(=O)c4ccccc4)c3)nc3cc(OC)c(OC)cc23)c1` [Compound 33, N-(3-(4-(3-ethynylphenylamino)-6,7-dimethoxyquinazolin-2-ylamino)phenyl)benzamide] had a 50% inhibitory concentration (IC50) of 2.65 µM.

What is called IC50 is the concentration that gives 50% inhibition.
